Experimental data: US8017316B2, “Methods and compositions for the identification of insect repellent compounds” (Duke University, priority 2007, dated 2011)

Assays:
wild-type Canton S flies = experiment: Avoidance Evaluation Chamber assay, wild type flies; type: in vivo, Drosophila melanogaster; settings: for avoidance without the third antennal segment: wild type Canton S flies, third antennal segment removed
Experimental: (§1) Avoidance Evaluation Chambers: 3% agar (Fisher Scientific, Pittsburgh, Pa., United States of America) and 3% sucrose (Fisher Scientific) was dissolved in distilled H2O. 0.2% (1:500, or 20 mM) N,N-diethyl-3-methylbenzamide (DEET) or 0.01% (1:10000, or 1 mM) allyl-isothiocyanate (AITC) was added and mixed into the agar/sucrose solution immediately before 22 milliliters of solution was poured into each 60 diameter×15 mm HBD Falcon Standard Tissue Culture Dish. The agar was allowed for harden for approximately 1 hour. Using a template below each dish, the agar was then split along the midline with a clean razor blade and half of each plate was excised and placed onto a clean absorbent towel. In order to assess preference, the empty half of each plate was then replaced with solidified 3% agar and 3% sucrose without the addition of DEET or AITC. Care was taken to not contaminate surfaces of toxin and toxin-free agar during this switch.
(§2) Olfactory Desensitization: To prevent most odorant detection, the third antennal segment of each antennae was removed from flies under CO2 anesthesia 24 hours before avoidance trials. Removal of both aristae, but not any part of the antennae, was used as a sham to control for non-specific effects that may have resulted from the surgical procedure.
(§3) Trial Recording: Testing areas (e.g., plates), each containing toxin-containing and toxin-free halves, were placed on a fluorescent-bulb containing light box and arranged so that all fit within the viewfinder of a digital video camera (SONY Handycam; see FIG. 1). Multiple flies to be used on each plate of the trial were sorted under CO2 anesthesia 24 hours before the experiment into glass vials containing fly food. During the experiment, the flies were transferred onto the agar plates by gentle tapping after vials were cooled horizontally on ice. The lids were replaced on the agar plates after fly transfer and animals were allowed a 5-minute acclimation time prior to the start of each trial. The video camera began recording after this acclimation time and ran for 60 minutes. External noise and odors were avoided throughout the trial.
Data Analysis—Avoidance Behavior: Video was downloaded from the digital video camera to a computer using Image Video Mixer (Sony Electronics Inc.) and saved as an MPEG2 file. The movie was then converted to and saved as an image stack at the rate of 1-3 images/second through Image Video Machine (DanDans Digital Media, Boston, Mass., United States of America). Image stacks for each trial were then analyzed at 10 or 15-minute intervals. Each interval was imported and converted to grayscale into ImageJ (Rasband, ImageJ, U.S. National Institutes of Health, Bethesda, Md., United States of America) as a stack and thresholded (Image→Threshold) so that only flies were visible. Care was taken to make sure only flies were visible in each slice since fluorescence in the light box may be of different brightness in each image. The Z-stack Standard Deviation function of ImageJ (Image→Stack→Z-stack→Standard Deviation) was used to visualize the position of all flies throughout each time interval. […] To quantify this amount of time each space was occupied, the “mean gray value” for each side was calculated using the Analyze Measurements menu of ImageJ. […]
Alternatively, the threshold intensity of a single frame in NIH ImageJ was determined automatically; this function highlighted only the flies against an otherwise white background. […]

painless mutant flies = experiment: Avoidance Evaluation Chamber assay, painless mutant flies; type: in vivo, Drosophila melanogaster
Experimental: (§4) Drosophila Stocks. All fly stocks were maintained on conventional cornmeal-agar-molasses medium under a 12 hour light/12 hour dark cycle at 22° C. Fly strains used were the wild-type Canton-S, the painless mutant pain1 (EP(2)2451), the dTRPA1 mutant (dTRPA1^23-5939/Df(3L)ED4415), the painless− dTRPA1 double mutant pain1; dTRPA1^23-5939, the Or83b mutant W;ΔOr83b (provided by Dr. Hubert Amrein, Duke University, Durham, N.C., United States of America), and the Or83b-painless double mutant pain1; W;ΔOr83b.
as §1, §2, §3
Data Analysis—Avoidance Behavior: Video was downloaded from the digital video camera to a computer using Image Video Mixer (Sony Electronics Inc.) and saved as an MPEG2 file. The movie was then converted to and saved as an image stack at the rate of 1-3 images/second through Image Video Machine (DanDans Digital Media, Boston, Mass., United States of America). Image stacks for each trial were then analyzed at 10 or 15-minute intervals. Each interval was imported and converted to grayscale into ImageJ (Rasband, ImageJ, U.S. National Institutes of Health, Bethesda, Md., United States of America) as a stack and thresholded (Image→Threshold) so that only flies were visible. Care was taken to make sure only flies were visible in each slice since fluorescence in the light box may be of different brightness in each image. The Z-stack Standard Deviation function of ImageJ (Image→Stack→Z-stack→Standard Deviation) was used to visualize the position of all flies throughout each time interval. This inverts and stacks pixels (flies) from each stack image so that the most occupied areas are standardized to be the brightest, and the least occupied areas remain dark. To quantify this amount of time each space was occupied, the “mean gray value” for each side was calculated using the Analyze Measurements menu of ImageJ. […]

dTRPA1 mutant flies = experiment: Avoidance Evaluation Chamber assay, dTRPA1 mutant flies; type: in vivo, Drosophila melanogaster
Experimental: as §4
(§5) Avoidance Evaluation Chambers: 3% agar (Fisher Scientific, Pittsburgh, Pa., United States of America) and 3% sucrose (Fisher Scientific) was dissolved in distilled H2O. […]
(§6) Data Analysis—Avoidance Behavior: Video was downloaded from the digital video camera to a computer using Image Video Mixer (Sony Electronics Inc.) and saved as an MPEG2 file. […] Image stacks for each trial were then analyzed at 10 or 15-minute intervals. […] Care was taken to make sure only flies were visible in each slice since fluorescence in the light box may be of different brightness in each image. […] To quantify this amount of time each space was occupied, the “mean gray value” for each side was calculated using the Analyze Measurements menu of ImageJ. […]

Or83b mutants = experiment: Avoidance Evaluation Chamber assay, Or83b mutant flies; type: in vivo, Drosophila melanogaster; settings: olfaction-deficient Or83b mutants
Experimental: as §4, §5, §6

Drosophila painless = target: T1, Drosophila painless (Drosophila melanogaster, UniProt Q9W0Y6); experiment: Calcium imaging of S2R+ cells transfected with painless; type: cell-based; settings: 0.5% DEET, six regions of interest
T1 construct: expressed in transfected cells; host or cells: Drosophila S2R+ cells
T1 sequence (Q9W0Y6 1-913): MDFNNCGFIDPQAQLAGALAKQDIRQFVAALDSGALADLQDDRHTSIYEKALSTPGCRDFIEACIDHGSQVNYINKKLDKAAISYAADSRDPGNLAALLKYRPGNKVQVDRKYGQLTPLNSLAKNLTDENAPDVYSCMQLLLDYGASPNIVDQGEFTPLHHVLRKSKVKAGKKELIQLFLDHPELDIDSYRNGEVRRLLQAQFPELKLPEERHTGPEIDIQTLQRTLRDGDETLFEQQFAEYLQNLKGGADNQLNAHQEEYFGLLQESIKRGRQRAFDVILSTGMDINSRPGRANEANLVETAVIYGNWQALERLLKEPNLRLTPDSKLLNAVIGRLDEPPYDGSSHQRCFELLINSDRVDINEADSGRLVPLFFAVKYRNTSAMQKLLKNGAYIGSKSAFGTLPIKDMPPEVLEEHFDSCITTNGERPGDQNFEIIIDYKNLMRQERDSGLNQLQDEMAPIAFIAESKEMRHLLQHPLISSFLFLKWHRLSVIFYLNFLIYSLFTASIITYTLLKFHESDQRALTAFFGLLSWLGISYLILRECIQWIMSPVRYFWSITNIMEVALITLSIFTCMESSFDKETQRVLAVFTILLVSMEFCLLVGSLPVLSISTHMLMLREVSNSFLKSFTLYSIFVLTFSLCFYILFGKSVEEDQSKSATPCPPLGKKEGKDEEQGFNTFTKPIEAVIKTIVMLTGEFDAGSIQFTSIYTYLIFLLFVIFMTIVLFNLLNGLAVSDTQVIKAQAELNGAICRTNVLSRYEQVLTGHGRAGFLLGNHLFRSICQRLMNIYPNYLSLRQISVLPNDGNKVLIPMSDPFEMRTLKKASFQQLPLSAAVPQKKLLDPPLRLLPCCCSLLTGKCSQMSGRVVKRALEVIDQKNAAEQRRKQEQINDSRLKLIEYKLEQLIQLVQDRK
Experimental: Calcium Phosphate Transfection of Drosophila S2R+ Cells: Drosophila S2R+ cells were maintained at room temperature, in ambient atmosphere, in Schneider's Drosophila medium modified with L-glutamine plus 10% heat-inactivated fetal bovine serum. On the day before DNA transfection, cells were plated at a density of 1.2×10^5 cells per cm^2 growth area. DNA to be transfected was added to 250 mM CaCl2 (a volume equal to 1/20th of the volume of the medium in the dish of cells to be transfected) then this mixture was added dropwise to the same volume of 280 mM NaCl/1.5 mM/Na2HPO4/50 mM HEPES, pH 7.08 (2×HEPES buffered saline) while bubbling air gently through the liquid to mix. Precipitate was allowed to form at room temperature for 40 minutes. Immediately before introducing the precipitate, all growth medium was removed form the cells and fresh growth medium was added. Precipitate was added dropwise to the cells, and the dish was gently swirled. 18-24 hour later all liquid on the dish was withdrawn and was replaced with fresh growth medium. Expression was examined on the third day.
For the DEET experiments, 2 ml of culture medium containing 5.75×10^5 cells/ml was placed onto #1.5 25 mm diameter round glass cover slips placed in 6-well multiwell dishes. […]

[1] = test system: non-transfected S2R+ cells; experiment: Calcium imaging of non-transfected S2R+ cells; type: cell-based, Drosophila; settings: 0.5% DEET, seven regions of interest
Experimental: Calcium Imaging for S2R+ cells: the following protocol was followed:
100 μl of the following Fluo4+Fura-Red solution was added per well:
Added 200 μl of fly saline.
The ligand solution was added (with or without Ca++ fly saline).
Control cells were S2R+ cells mock-transfected (no DNA was introduced in the co-precipitation buffers).
After removal of the cell medium from the transfected cells of EXAMPLE 8, 100 μl of FLUO-4+ FURA-Red solution was added to well. This solution included 0.5 μl FLUO-4 stock, 0.5 μl FURA-Red stock, 0.5 μl Pluronic stock and 100 μl Stop solution. The cells were incubate in this solution at room temperature for 45 minutes. The saline was removed and 200 μl of fly saline was added. In Ca++ free conditions, the cells were washed with Ca++ free fly saline supplemented with 5 mM EGTA three times, and then 200 μl of Ca++ free, 5 mM EGTA fly saline was added. The ligand solution was then added with or without Ca++ fly saline.
The loaded cells were imaged by confocal microscopy using 488 nm excitation and Long Pass 650 nm and Band Pass 500-525 nm filters.

Drosophila flies = experiment: Evaluation of activity level (speed of flies); type: in vivo, Drosophila melanogaster
Experimental: Evaluation of Activity Level—Speed of Flies: Video of trials were downloaded and converted to image stacks and thresholded as described above. The ImageJ plug-in “Multitracker” was used to analyze the paths taken by each fly. The total distance traveled by all flies on each plate was calculated using the Multitracker plug-in, and this distance was divided by the time interval (in minutes) to gauge the average speed of flies on each plate in path lengths/minute.

C=CCN=C=S [AITC, allyl-isothiocyanate]
avoidance without the third antennal segment (wild-type Canton S flies): able to avoid
preference in AITC avoidance test, males (painless mutant flies; painless-/- males, 1:10,000 dilution): slight preference for the non-AITC side
AITC detection / avoidance (painless mutant flies; painless-/- mutants, 1:10,000 dilution, compared to wild type Canton S): deficient in AITC detection
avoidance of AITC over time (dTRPA1 mutant flies; 1:10,000 AITC): avoided the toxin for the first 30 minutes, but afterwards showed no preference for either side of the plate
avoidance (Or83b mutants): did not show the same avoidance of AITC

CCN(CC)C(=O)c1cccc(C)c1 [DEET, N,N-diethyl-meta-toluamide]
time to begin avoiding DEET (wild-type Canton S flies; Canton S flies without antennae): almost immediately
avoidance without the third antennal segment (wild-type Canton S flies): able to avoid
avoidance of DEET in first fifteen minutes after exposure (wild-type Canton S flies; wild type Canton-S flies): clearly avoided DEET
lowest concentration in agar consistently avoided (wild-type Canton S flies; wild-type Canton S flies, with and without the presence of sugar): 0.2%
calcium response (FLUO-4 and FURA-RED AM channels) (Drosophila painless): strong calcium increases
avoidance of DEET in first 15 minutes (painless mutant flies; P-pain-rescue, pain1 transgenic flies (genomic painless rescue construct), females and males): some avoidance of DEET
avoidance of DEET in first fifteen minutes after exposure (painless mutant flies; pain1/pain2 females and males): failed to avoid DEET
avoidance of DEET in first fifteen minutes after exposure (painless mutant flies; pain1 females and males): failed to avoid DEET
time to avoid DEET, females relative to males (painless mutant flies; painless females vs painless males): twice as long
avoidance of DEET, females (painless mutant flies; painless-/- females): barely avoiding at the last 65 min time point
time to begin avoiding DEET (painless mutant flies; painless-/- males): about 30 minutes
avoidance of DEET without third antennal segments (painless mutant flies; painless-/- males and females with surgically removed third antennal segments): no avoidance of DEET
avoidance of DEET in first fifteen minutes of the trial (painless mutant flies; painless-Gal4 females and males): failed to avoid DEET
exposure time until consistent avoidance of DEET (dTRPA1 mutant flies; 0.2% concentration): less than 15 minutes
calcium response (FLUO-4 and FURA-RED AM channels) [1]: strong calcium increases
activity level (path lengths/min) in the presence of DEET (Drosophila flies; Canton S flies without the third antennal segment): significantly less active
activity level in the presence of DEET (Drosophila flies; Or83b flies compared to Canton S, TrpA1 and painless mutant counterparts): much less active
activity level (path lengths/min) in the presence of DEET (Drosophila flies; wild type Canton S flies with intact third-antennal segments): increased their activity level
avoidance (Or83b mutants): able to avoid DEET
